From US20120302503A1, “PEPTIDES FOR PREVENTING OR TREATING A DISEASE OR DISORDER ASSOCIATED WITH CBP OR p300 MISREGULATION, AND METHODS FOR USE AND IDENTIFICATION THEREOF” (AML Therapeutics, LLC, priority 2011, published 2012) come the findings set out here.

Like-named read-outs stand apart in the source and are kept apart here. Square brackets hold non-standard residues; d marks the D form. Peptide text beside a SMILES is read from it. d(pS) = N[C@H](COP(=O)(O)O)C(=O)O; pS = N[C@@H](COP(=O)(O)O)C(=O)O; dNle = CCCC[C@@H](N)C(=O)O

The test system of the test is THP-1 cell line. As to the kind of experiment: Cell proliferation assay (Promega Cell Titer-Glo) using cell line THP-1. Format: cell-based. As to the method: To determine the in vitro IC50 of two peptides, and a positive control, cisplatin, against the THP-1 cell line, cell growth is determined using Promega's Cell Titer-Glo® assay. THP-1 tumor cells are placed in a 96-well microculture plate (Costar white, flat bottom #3917) at 20,000 cells per well, in a total volume of 90 μL/well. After 24 hours of incubation in a humidified incubator at 37 C with 5% CO2 and 95% air, 10 μL of 10×, serially diluted test agents in growth medium are added to each well. […] 100 μL of Cell Titer-Glo® reagent are added to each well. The plate is shaken for 2 minutes and then left to equilibrate for 10 minutes before determining luminescence on a Tecan GENios microplate reader. Percent inhibition of cell growth is calculated relative to untreated control wells. All tests are performed in duplicate at each concentration level. The IC50 value for the test agents is estimated using Prism 3.03 by curve-fitting the data using the following four parameter-logistic equation: where Top is the maximal % of control absorbance, Bottom is the minimal % of control absorbance at the highest agent concentration, Y is the % of control absorbance, X is the agent concentration, IC50 is the concentration of agent that inhibits cell growth by 50% compared to the control cells, and n is the slope of the curve.

`CCCC[C@@H](NC(=O)[C@@H](CCSC)NC(=O)[C@@H](CO)NC(=O)[C@H](NC(=O)[C@@H](CCC(=O)O)NC(=O)[C@@H](CC(N)=O)NC(=O)[C@@H](CCC(=O)O)NC(=O)[C@@H](CC(C)C)NC(=O)CNC(=O)[C@@H](CCCNC(=N)N)NC(=O)[C@@H](CCCNC(=N)N)NC(=O)[C@@H](CCCNC(=N)N)NC(=O)[C@@H](CCCNC(=N)N)NC(=O)[C@@H](CCCNC(=N)N)NC(=O)[C@@H](CCCNC(=N)N)NC(=O)[C@@H](CCCNC(=N)N)NC(=O)[C@@H](CCCNC(=N)N)NC(=O)[C@H](N)CCCNC(=N)N)[C@H](C)O)C(=O)N[C@H](CC(=O)O)C(=O)N[C@H](CC(N)=O)C(=O)N[C@H](CC(C)C)C(=O)N[C@@H](C(=O)N[C@H](CCCCN)C(=O)N[C@H](CCCNC(=N)N)C(=O)N[C@H](Cc1ccc(O)cc1)C(=O)N[C@@H](COP(=O)(O)O)C(=O)NCC(N)=O)[C@H](C)CC` [SEQ ID NO: 15, dR dR dR dR dR dR dR dR dR G dL dE dN dE dT dS dM dNIe dD dN dL dI dK dR dY pS G amide] (H-[dR][dR][dR][dR][dR][dR][dR][dR][dR]G[dL][dE][dN][dE][dT][dS][dM][dNle][dD][dN][dL][dI][dK][dR][dY][pS]G-NH2; N-terminus assumed) showed an IC50 (24 h) of 14.1 µM. Compound `CC[C@@H](C)[C@@H](NC(=O)[C@@H](CCCCN)NC(=O)[C@@H](CCC(=O)O)NC(=O)[C@@H](CC(C)C)NC(=O)[C@@H](CCC(=O)O)NC(=O)[C@@H](CC(C)C)NC(=O)[C@@H](CC(C)C)NC(=O)[C@@H](CC(C)C)NC(=O)[C@@H](CCSC)NC(=O)[C@@H](CO)NC(=O)[C@H](NC(=O)[C@@H](CCC(=O)O)NC(=O)[C@@H](CC(N)=O)NC(=O)[C@@H](CCC(=O)O)NC(=O)[C@@H](CC(C)C)NC(=O)CNC(=O)[C@@H](Cc1ccc(O)cc1)NC(=O)CNC(=O)[C@@H](CCCNC(=N)N)NC(=O)[C@@H](CCCCN)NC(=O)[C@@H](CCCCN)NC(=O)[C@@H](CCCNC(=N)N)NC(=O)[C@@H](CCCNC(=N)N)NC(=O)[C@@H](CCC(N)=O)NC(=O)[C@@H](CCCNC(=N)N)NC(=O)[C@@H](CCCNC(=N)N)NC(=O)[C@H](N)CCCNC(=N)N)[C@H](C)O)C(=O)N[C@H](CCCNC(=N)N)C(N)=O` [SEQ ID NO: 16, dR dR dR dQ dR dR dK dK dR G dY G dL dE dN dE dT dS dM dL dL dL dE dL dE dK dI dR amide] (H-[dR][dR][dR][dQ][dR][dR][dK][dK][dR]G[dY]G[dL][dE][dN][dE][dT][dS][dM][dL][dL][dL][dE][dL][dE][dK][dI][dR]-NH2; N-terminus assumed) showed an IC50 (24 h) of 21.6 µM. Regarding `CC[C@@H](C)[C@@H](NC(=O)[C@@H](CC(C)C)NC(=O)[C@@H](CC(N)=O)NC(=O)[C@@H](CC(=O)O)NC(=O)[C@@H](CC(C)C)NC(=O)[C@@H](CCSC)NC(=O)[C@@H](CO)NC(=O)[C@H](NC(=O)[C@@H](CCC(=O)O)NC(=O)[C@@H](CC(N)=O)NC(=O)[C@@H](CCC(=O)O)NC(=O)[C@@H](CC(C)C)NC(=O)CNC(=O)[C@@H](CCCNC(=N)N)NC(=O)[C@@H](CCCNC(=N)N)NC(=O)[C@@H](CCCNC(=N)N)NC(=O)[C@@H](CCCNC(=N)N)NC(=O)[C@@H](CCCNC(=N)N)NC(=O)[C@@H](CCCNC(=N)N)NC(=O)[C@@H](CCCNC(=N)N)NC(=O)[C@@H](CCCNC(=N)N)NC(=O)[C@H](N)CCCNC(=N)N)[C@H](C)O)C(=O)N[C@H](CCCCN)C(=O)N[C@H](CCCNC(=N)N)C(=O)N[C@H](Cc1ccc(O)cc1)C(=O)N[C@@H](COP(=O)(O)O)C(=O)NCC(N)=O` [SEQ ID NO: 14, dR dR dR dR dR dR dR dR dR G dL dE dN dE dT dS dM dL dD dN dL dI dK dR dY pS G amide] (H-[dR][dR][dR][dR][dR][dR][dR][dR][dR]G[dL][dE][dN][dE][dT][dS][dM][dL][dD][dN][dL][dI][dK][dR][dY][pS]G-NH2; N-terminus assumed), the IC50 (24 h) amounted to 13.9 µM. As to `CC[C@@H](C)[C@@H](NC(=O)[C@@H](CC(C)C)NC(=O)[C@@H](CC(N)=O)NC(=O)[C@@H](CC(=O)O)NC(=O)[C@@H](CC(C)C)NC(=O)[C@@H](CCSC)NC(=O)[C@@H](CO)NC(=O)[C@H](NC(=O)[C@@H](CCC(=O)O)NC(=O)[C@@H](CC(N)=O)NC(=O)[C@@H](CCC(=O)O)NC(=O)[C@@H](CC(C)C)NC(=O)CNC(=O)[C@@H](CCCNC(=N)N)NC(=O)[C@@H](CCCNC(=N)N)NC(=O)[C@@H](CCCNC(=N)N)NC(=O)[C@@H](CCCNC(=N)N)NC(=O)[C@@H](CCCNC(=N)N)NC(=O)[C@@H](CCCNC(=N)N)NC(=O)[C@@H](CCCNC(=N)N)NC(=O)[C@@H](CCCNC(=N)N)NC(=O)[C@H](N)CCCNC(=N)N)[C@H](C)O)C(=O)N[C@H](CCCCN)C(=O)N[C@H](CCCNC(=N)N)C(=O)N[C@H](Cc1ccc(O)cc1)C(=O)N[C@H](COP(=O)(O)O)C(=O)NCC(N)=O` [SEQ ID NO: 13, dR dR dR dR dR dR dR dR dR G dL dE dN dE dT dS dM dL dD dN dL dI dK dR dY dpS G amide] (H-[dR][dR][dR][dR][dR][dR][dR][dR][dR]G[dL][dE][dN][dE][dT][dS][dM][dL][dD][dN][dL][dI][dK][dR][dY][d(pS)]G-NH2; N-terminus assumed), for the setting “24 h”, the IC50 amounted to 17.5 µM. As for `N.N.[Cl][Pt][Cl]` [Cisplatin, cisplatin, reference compound], the IC50 (THP-1 tumor cells, 96 total hours of culture, Cell Titer-Glo luminescence, Table 1, read-out: IC50 values) was 1.6 µM and the IC50 (THP-1 tumor cells, 96 total hours of culture, Cell Titer-Glo luminescence, Table 2, read-out: IC50 values) turned out to be 1.6 µM.
